# Assay results published in patent publication US20140322761A1, “METHOD OF PREPARING SAMPLE FOR NUCLEIC ACID AMPLIFICATION REACTION, NUCLEIC ACID AMPLIFICATION METHOD, AND REAGENT AND MICROCHIP FOR SOLID PHASE NUCLEIC ACID AMPLIFICATION REACTION” (Sony Corporation, priority 2013, published 2014).
# Experiments:
# [1] = test system: nucleic acid amplification reaction (genome of Bifidobacterium bifidum as template); assay: LAMP reaction with SDS and HPβCD, bacterial genome as template (Example 6); format: biochemical
# Experimental: In Example 6, nucleic acid amplification reaction was performed using the LAMP method using a genome of Bifidobacterium bifidum as a template nucleic acid. In addition, a sample for nucleic acid amplification reaction, a primer, and a quenching probe used for the nucleic acid amplification reaction were the same as those in Example 5. HPβCD was prepared such that a final concentration of HPβCD in a nucleic acid amplification reaction solution becomes 2.5%. Furthermore, SDS was added thereto such that the SDS concentrations become 0%, 0.05%, 0.1%, 0.2%, 0.3%, 0.4%, 0.5%, and 1.0% to be set as Test Examples 1 to 8 respectively. In addition, HPβCD was prepared such that a final concentration of HPβCD in a nucleic acid amplification reaction solution becomes 5.0%. Furthermore, SDS was added thereto such that the SDS concentrations become 0%, 0.05%, 0.1%, 0.2%, 0.3%, 0.4%, 0.5%, and 1.0% to be set as Test Examples 9 to 16 respectively. In addition, nucleic acid amplification reaction solutions prepared such that the HPβCD concentration becomes 0% and the SDS concentrations become 0%, 0.01%, and 0.1% to be set as Comparative Examples 1 to 3.
# [2] = target: T1, RNase A (Bos taurus, UniProt P61823); assay: RNase A activity, RNase Alert QC test Kit (Example 3); format: biochemical; settings: RNase A 0.003 U/mL, 37° C., 60 minutes, compared to Comparative Example 2 without SDS
# T1 sequence (P61823 27-150): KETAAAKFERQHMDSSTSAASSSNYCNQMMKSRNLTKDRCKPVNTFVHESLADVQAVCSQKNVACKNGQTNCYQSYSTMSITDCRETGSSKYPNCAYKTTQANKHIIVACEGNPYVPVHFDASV
# Experimental: RNase Alert QC test Kit (Ambion) was used for measuring the activity of the RNase A. The RNase A was added to the solution containing RNaseAlert substrate with a final concentration of 0.003 U/mL. The SDS was added to the RNase A solution with a final concentration of 0.1% or 1.0% each to be set as Test Example 1 and Test Example 2. […] Test Examples 1 and 2 and Comparative Examples 1 and 2 were kept warm for 60 minutes at a temperature of 37° C. A fluorescent material (FAM) is bonded with a quencher in the RNaseAlert substrate. The fluorescent material emits when the fluorescent material is separated from the quencher using the RNase A. Excitation light and luminescence of the fluorescence was measured to be 490 nm and 520 nm respectively, using Chromo4 (Bio-rad).
# [3] = test system: Bifidobacterium bifidum; assay: Nucleic acid extraction from bacteria by heat treatment with SDS, followed by LAMP (Example 5); settings: HPβCD 5% (w/v), LAMP 63° C.
# Experimental: In Example 5, Bifidobacterium bifidum from which it is comparatively difficult to extract the nucleic acid was used as bacteria. The Bifidobacterium bifidum (NBRC number: 100015) was obtained from Biological Resource Center (NBRC) of National In statute of Technology and Evaluation (NITE). In addition, the nucleic acid amplification reaction of a genome of Bifidobacterium bifidum was performed using the LAMP method and an LAMP reaction reagent (Eiken Chemical Co., Ltd, Loopamp® DNA Amplification reagent Kit) was used as a sample for the nucleic acid amplification reaction.
# A quenching probe shown in Table 3 was used for detecting an amplification nucleic acid chain. In Example 5, excitation light and luminescence of light derived from a fluorescent material FAM bonded with the quenching probe was measured to be 490 nm and 520 nm respectively, using Chromo4 (Bio-rad).
# A cell suspension in which the Bifidobacterium bifidum is prepared to be 100 copies/ml. In Example 5, as Test Examples 3 to 5, SDS was added to the cell suspension at the time of heat treatment such that concentrations of SDS become 0.01%, 0.1%, and 1%, respectively (refer to Table 4). In addition, as Test Examples 1 and 2 and Comparative Example 1, cell suspensions to which SDS was not added was prepared (refer to Table 4). The heat treatment was performed for 3 minutes at a temperature of 90° C. for Test Examples 1 and 3 to 5 before starting the nucleic acid amplification reaction. In addition, sonication was performed for Test Example 2 before starting the nucleic acid amplification reaction. After the heating process or the sonication, a LAMP reaction reagent and a primer and quenching probe of Table 3 were added to Test Examples 1 to 5. Furthermore, hydroxyprophyl-β-cyclodextrin (Tokyo Chemical Industry Co., Ltd.) was added to Test Examples 1 to 5 such that a final concentration of the hydroxyprophyl-β-cyclodextrin becomes 5% (w/v). A sample for nucleic acid amplification reaction, a primer, a quenching probe, and HPβCD were added to Comparative Example 1 as well. […]
# [4] = test system: RNase A contained in plasma; assay: Activity of RNase A contained in diluted bovine plasma, RNase Alert QC test Kit (Example 4); format: biochemical; settings: 37° C., 60 minutes
# Experimental: In Example 4, bovine plasma was used as an organism derived sample. The bovine plasma was used after being diluted 10 times or 20 times in advance. Similarly to Example 3, RNase Alert QC test Kit (Ambion) was used for measuring the activity of the RNase A. RNaseAlert substrate and SDS were added to the 10 times diluted bovine plasma such that final concentrations of the SDS become 0.05%, 0.1%, 0.2%, 0.3%, 0.4%, and 0.5% respectively to be set as Test Examples 1 to 6. In addition, RNaseAlert substrate and SDS were added to the 20 times diluted bovine plasma such that final concentrations of the SDS become 0.05%, 0.1%, 0.2%, 0.3%, 0.4%, and 0.5% respectively to be set as Test Examples 7 to 12. In addition, 10 times diluted bovine plasma to which SDS is not added was set as Comparative Example 1 and 20 times diluted bovine plasma to which SDS is not added was set as Comparative Example 2. Test Examples 1 to 12 and Comparative Examples 1 and 2 were kept warm for 60 minutes at a temperature of 37° C. and the activity of the RNase A was measured during the time period using the same method as in Example 3.
Molecule,HPβCD concentration relative to the SDS concentration to suppress the inhibition of the LAMP reaction due to the SDS ([1]; in the nucleic acid amplification reaction solution) [times],activity of the RNase A ([2]; SDS 0.1% (Test Example 1)),activity of the RNase A ([2]; SDS 1.0% (Test Example 2)),"Tt value ([3]; SDS 0.01% at heat treatment, 3 minutes at 90° C. (Test Example 3)) [min]","Tt value ([3]; SDS 0.1% at heat treatment, 3 minutes at 90° C. (Test Example 4)) [min]","amplification of the nucleic acid ([3]; SDS 1% at heat treatment, 3 minutes at 90° C. (Test Example 5))",SDS concentration at which amplification of the nucleic acid was confirmed ([1]; HPβCD not added) [%],"amplification of the nucleic acid ([1]; HPβCD not added, SDS concentration 0.1%)",SDS concentration with which the activity of the RNase A was suppressed ([4]; bovine plasma diluted 10 times (Test Examples 5 and 6)) [%],SDS concentration with which the activity of the RNase A was suppressed ([4]; bovine plasma diluted 20 times (Test Examples 9 to 12)) [%]
hydroxyprophyl-β-cyclodextrin [HPβCD],≥ 8,–,–,–,–,–,–,–,–,–
"CCCCCCCCCCCCOS(=O)(=O)[O-].[Na+] [SDS, sodium dodecyl sulfate]",–,suppressed,suppressed,17.5,14.2,no amplification of the nucleic acid,≤ 0.01,No amplification of the nucleic acid was confirmed,≥ 0.4,≥ 0.2
